Laboratory results published in ChEMBL document CHEMBL1201862, “PubChem BioAssay data set” (2004).
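Dose response: 5 concentrations. Exposure: 48 h. Format: 96-well plates. Endpoint: linear interpolation; highest concentration if not reached. GI50 is the concentration that inhibits growth by half.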 Calls of active or inactive are those of the source. Rule as the data show it: active = GI50 up to about 1.1 µM and inactive = higher.

Tests used:
Assay in all cases: NCI tumour cell line growth inhibition, 48 h
[1] = test system: XF498
[2] = test system: KM-20L2
[3] = test system: LXFL 529
[4] = test system: DMS-273
[5] = test system: SNB-78
[6] = test system: DLD-1
[7] = test system: DMS-114
[8] = test system: RXF 631
[9] = test system: HOP-18

SMILES | GI50 [1] | GI50 [2] | GI50 [3] | GI50 [4] | GI50 [5] | GI50 [6] | GI50 [7] | GI50 [8] | GI50 [9]
O=C(/C=C/c1c(O)ccc2ccccc12)c1ccccc1Cl | 23.3 µM (inactive) | > 100 µM (inactive) | 31 µM (inactive) | 34.3 µM (inactive) | 44.4 µM (inactive) | 31.1 µM (inactive) | 19.9 µM (inactive) | – | –
Fc1ccc2c(c1)cc1ccc3cccc4ccc2c1c34 | > 100 µM (inactive) | > 100 µM (inactive) | > 100 µM (inactive) | > 100 µM (inactive) | > 100 µM (inactive) | > 100 µM (inactive) | > 100 µM (inactive) | > 100 µM (inactive) | > 100 µM (inactive)
CC12CO[C@@](C)(CC(S(=O)(=O)c3ccccc3)C1)O2 (stereo partly specified) | – | > 100 µM (inactive) | > 100 µM (inactive) | > 100 µM (inactive) | > 100 µM (inactive) | > 100 µM (inactive) | > 100 µM (inactive) | – | > 100 µM (inactive)
CC1=Nn2c(nnc2-c2ccc(Cl)cc2)NC(C)(C)C1 | > 100 µM (inactive) | > 100 µM (inactive) | > 100 µM (inactive) | > 100 µM (inactive) | > 100 µM (inactive) | > 100 µM (inactive) | > 100 µM (inactive) | – | > 100 µM (inactive)
CCN(CC)C(=S)SC1CCOP(=O)(N(CCCl)CCCl)N1C (stereo unspecified) | – | 38.7 µM (inactive) | 0.0372 µM (active) | 0.214 µM (active) | 49.2 µM (inactive) | 0.126 µM (active) | 0.19 µM (active) | – | > 100 µM (inactive)
C/C(=C\C(C[C@](C)(O)C(O)CCC#C[Si](C)(C)C)S(=O)(=O)c1ccccc1)CC/C=C/CO[Si](C)(C)C(C)(C)C (stereo partly specified) | 13.2 µM (inactive) | 8.61 µM (inactive) | – | 15.7 µM (inactive) | 16.8 µM (inactive) | 23.6 µM (inactive) | 15.2 µM (inactive) | 9.66 µM (inactive) | –
Nc1ccc2c(SCc3ccc([N+](=O)[O-])cc3)c3ccccc3nc2c1 | 14.6 µM (inactive) | 16.5 µM (inactive) | 6.08 µM (inactive) | 19.9 µM (inactive) | 21.9 µM (inactive) | 2.39 µM (inactive) | 15 µM (inactive) | – | 13.5 µM (inactive)
CN(CC(=O)O)S(=O)(=O)c1ccc2ccccc2c1 | > 100 µM (inactive) | > 100 µM (inactive) | > 100 µM (inactive) | > 100 µM (inactive) | – | > 100 µM (inactive) | – | > 100 µM (inactive) | > 100 µM (inactive)
O=C1CCCCCCC2=C1C(Sc1ccccc1)CC2 (stereo unspecified) | – | 41.6 µM (inactive) | 35.4 µM (inactive) | 26.2 µM (inactive) | > 100 µM (inactive) | – | 23.7 µM (inactive) | – | > 100 µM (inactive)
Cc1cc(C)c(-c2noc(-c3ccc(Cl)cc3)c2C2=NCCCN2)c(C)c1 | 12.2 µM (inactive) | 21.9 µM (inactive) | 32.2 µM (inactive) | – | 14.8 µM (inactive) | 35.8 µM (inactive) | – | 25.1 µM (inactive) | 27.9 µM (inactive)
CCCCCCCCCCCCC(Br)C(=O)SCCNC(=O)CCNC(=O)[C@@H](O)C(C)(C)COP(=O)(O)OP(=O)(O)OCC1OC(n2cnc3c(N)ncnc32)C(O)C1OP(=O)(O)O (stereo partly specified) | > 56.5 µM (inactive) | > 56.5 µM (inactive) | > 56.5 µM (inactive) | > 56.5 µM (inactive) | > 56.5 µM (inactive) | > 56.5 µM (inactive) | > 56.5 µM (inactive) | – | > 56.5 µM (inactive)
O=C(/C=C/c1ccccc1)Oc1cccc2cccnc12 | 11.3 µM (inactive) | 2.2 µM (inactive) | 4.06 µM (inactive) | 23 µM (inactive) | 21 µM (inactive) | 4.37 µM (inactive) | – | – | 25.8 µM (inactive)
CNS(=O)(=O)NN(C)S(=O)(=O)c1ccccc1 | – | > 100 µM (inactive) | > 100 µM (inactive) | > 100 µM (inactive) | – | > 100 µM (inactive) | > 100 µM (inactive) | – | –
CC(C)(C)N/N=C(\C(=O)Nc1cccc(Cl)c1)C1C(=O)Nc2ccccc2[S+]1[O-] (stereo unspecified) | > 100 µM (inactive) | > 100 µM (inactive) | > 100 µM (inactive) | > 100 µM (inactive) | – | > 100 µM (inactive) | > 100 µM (inactive) | > 100 µM (inactive) | > 100 µM (inactive)
[O-][S+]1c2ccccc2N=C(c2ccc3ccccc3c2)CC1C1=CC=CCC1 (stereo unspecified) | 17.1 µM (inactive) | 19.5 µM (inactive) | 14.8 µM (inactive) | 19.2 µM (inactive) | – | 12.9 µM (inactive) | 15.2 µM (inactive) | 17.2 µM (inactive) | 35.8 µM (inactive)
CC1=C(C(=O)Nc2ccccc2)C(c2ccccc2)C(C(=O)Nc2ccccc2)=C(C)N1 | – | 25.2 µM (inactive) | 22.1 µM (inactive) | 47.4 µM (inactive) | > 100 µM (inactive) | 52.7 µM (inactive) | 19.2 µM (inactive) | – | > 100 µM (inactive)

SMILES | GI50 [1] | GI50 [2] | GI50 [3] | GI50 [4] | GI50 [5] | GI50 [6] | GI50 [7] | GI50 [8] | GI50 [9]
C#C[C@]1(O)CCC2C3CCc4cc(Oc5nc(F)nc(-n6c(C)nc7cc8ccccc8cc76)n5)ccc4C3CCC21C (stereo partly specified) | 61 µM (inactive) | 32.4 µM (inactive) | 41.1 µM (inactive) | 20.8 µM (inactive) | 75.3 µM (inactive) | 53.3 µM (inactive) | 20.6 µM (inactive) | – | 30.6 µM (inactive)
COC1/C=C\C=C(/C)C(=O)Nc2cc3nc4ccc(Br)cc4oc-3c(c2=O)CC(C)CC(OC)C(O)C(C)/C=C(\C)C1OC(N)=O (stereo unspecified) | < 0.0202 µM (active) | < 0.0181 µM (active) | < 0.0147 µM (active) | < 0.0216 µM (active) | 0.998 µM (active) | 0.0447 µM (active) | 0.0604 µM (active) | – | 0.01 µM (active)
CCCCCCCCCCCCSC(=S)c1c(C)[nH]n(-c2ccccc2)c1=O | – | 10.2 µM (inactive) | 9.12 µM (inactive) | – | 29.8 µM (inactive) | 2.3 µM (inactive) | 6.84 µM (inactive) | 13.2 µM (inactive) | > 50 µM (inactive)
CC(Oc1ccc2c(-c3ccc(Cl)cc3)cc(=O)oc2c1)C(=O)O (stereo unspecified) | 2.35 µM (inactive) | > 100 µM (inactive) | > 100 µM (inactive) | – | > 100 µM (inactive) | > 100 µM (inactive) | – | > 100 µM (inactive) | > 100 µM (inactive)
CCOC(=O)NC(=O)c1cn(C(CC)COC(=O)NCCCCCCNC(=O)OCC(CC)n2cc(C(=O)NC(=O)OCC)c(=O)[nH]c2=O)c(=O)[nH]c1=O (stereo unspecified) | – | > 100 µM (inactive) | > 100 µM (inactive) | > 100 µM (inactive) | > 100 µM (inactive) | > 10 µM (inactive) | > 100 µM (inactive) | – | > 100 µM (inactive)
CCN(CC)CCNc1ccc2ncn3c4cc(O)ccc4c(=O)c1c23 | 2.9 µM (inactive) | 3.7 µM (inactive) | 2.56 µM (inactive) | 2.77 µM (inactive) | 5.35 µM (inactive) | 3.76 µM (inactive) | 4.29 µM (inactive) | 2.1 µM (inactive) | –
C=C(C)CC(C)(c1cc2ccccc2n1C)N1CCOCC1 (stereo unspecified) | 50.6 µM (inactive) | > 100 µM (inactive) | 53.7 µM (inactive) | 61 µM (inactive) | – | 60.5 µM (inactive) | – | 42.4 µM (inactive) | > 100 µM (inactive)
COC(=O)C12CC(C3CC31)C1CC12 (stereo unspecified) | – | > 100 µM (inactive) | > 100 µM (inactive) | > 100 µM (inactive) | – | > 100 µM (inactive) | > 100 µM (inactive) | > 100 µM (inactive) | > 100 µM (inactive)
O=C(O)COc1ccc(C(=O)/C(SS/C(C(=O)c2ccc(OCC(=O)O)c(Cl)c2Cl)=C2\C=C(c3ccc(F)cc3)SS2)=C2/C=C(c3ccc(F)cc3)SS2)c(Cl)c1Cl | 5.22 µM (inactive) | 30 µM (inactive) | 3.29 µM (inactive) | 13.6 µM (inactive) | 6.08 µM (inactive) | 11.2 µM (inactive) | 3.28 µM (inactive) | – | 14.7 µM (inactive)
O=C(CC1C(=O)Nc2ccccc2S1(=O)=O)Nc1cc(Cl)ccc1Cl (stereo unspecified) | 14.1 µM (inactive) | 15.6 µM (inactive) | 14.1 µM (inactive) | – | 12.7 µM (inactive) | 15 µM (inactive) | 12.5 µM (inactive) | 28.4 µM (inactive) | –
O=c1n(-c2ccccc2)c(=O)n2n1C1C=CC2C2C(C1)C2(Cl)Cl (stereo unspecified) | > 100 µM (inactive) | > 100 µM (inactive) | > 100 µM (inactive) | > 100 µM (inactive) | > 100 µM (inactive) | > 100 µM (inactive) | > 100 µM (inactive) | > 100 µM (inactive) | –
C=C1C(=O)C23C(CC(OC(C)=O)C1[C@@H]2OC(C)=O)C1(C)C(OC(C)=O)CCC(C)(C)C1C[C@@H]3OC(C)=O (stereo partly specified) | – | 1.72 µM (inactive) | 1.35 µM (inactive) | 1.68 µM (inactive) | 1.53 µM (inactive) | – | 1.14 µM (inactive) | – | –
CC(C)(C)c1cc(C(O)(C(F)(F)F)C(F)(F)F)c2c(c1)C(C(F)(F)F)(C(F)(F)F)OC(C)(C(C)(C)C)N2 (stereo unspecified) | 1.63 µM (inactive) | 3.03 µM (inactive) | 2.96 µM (inactive) | 3.06 µM (inactive) | 5.87 µM (inactive) | 2.85 µM (inactive) | 2.74 µM (inactive) | – | 2.76 µM (inactive)
C/C=C(\N=C=S)C(=O)OC1C(COC(C)=O)OC([C@]2(O)CC(=O)C(N)=C(C(=O)O)C2=O)C(O)C1OC1CC(OC)C(O)([C@@H](C)OC(=O)[C@@H](C)CC)C(C)O1 (stereo partly specified) | 2.49 µM (inactive) | 6.92 µM (inactive) | 2.06 µM (inactive) | 16.3 µM (inactive) | 5.21 µM (inactive) | 10.9 µM (inactive) | 6.68 µM (inactive) | – | 16.8 µM (inactive)
CN1C(=O)CC2(C)c3cc(O)cc(Br)c3N(C)C12 (stereo unspecified) | > 100 µM (inactive) | > 100 µM (inactive) | > 100 µM (inactive) | – | > 100 µM (inactive) | – | > 100 µM (inactive) | – | 31.6 µM (inactive)
Cc1cc(NC(=O)NC(=O)c2ccccc2NC(=O)C(C)N)ccc1Oc1ncc(Br)cn1 (stereo unspecified) | – | 0.0946 µM (active) | 0.396 µM (active) | 0.046 µM (active) | 0.146 µM (active) | 0.331 µM (active) | 1.13 µM (inactive) | – | –
